Data: US6867207B2, “IL-5 inhibiting 6-azauracil derivatives” (Janssen Pharmaceutica N.V., priority 1997, dated 2005)

Test system: IL-5 production
Test: In vitro inhibition of IL-5 production in human blood (phytohemagglutinin-stimulated whole blood, ELISA);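 also: values marked with an asterisk were tested at 10 µM and unmarked values at 1 µM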
Assay type: cell-based
Conditions: test dose 1×10^−6 M, 48 hours
Description: In Vitro Inhibition of IL-5 Production in Human Blood
Human Whole Blood Stimulation
Peripheral blood from healthy male donors was drawn into heparinized syringes (12.5 U heparin/ml). Blood samples were three-fold diluted in RMPI 1640 medium (Life Technologies, Belgium) supplemented with 2 mM L-glutamine, 100 U/ml penicillin and 100 μg/ml streptomycin, and 300 μl fractions were distributed in 24-well multidisc plates. Blood samples were preincubated (60 minutes at 37° C.) in a humidified 6% CO2-atmosphere with 100 μl of drug solvent (final concentration 0.02% dimethylsulfoxide in RPMI 1640) or with 100 μl of an appropriate dose of test compound before being stimulated by the addition of 100 μl of phytohemagglutinin HA17 (Murex, UK) at a final concentration of 2 μg/ml. After 48 hours, cell-free supernatant fluids were collected by centrifugation and stored at −70° C. until tested for the presence of IL-5.
IL-5 measurements were conducted as described in Van Wauwe et al. (1996, Inflamm Res, 45, 357-363) on page 358 using ELISA.
Table 9 lists the percentage inhibition of IL-5 production (column “% inh”) at a test dose of 1×10^−6 M, or in case the percentage inhibition is marked with an “*” 1×10^−5 M, the compounds of the present invention.

Row | SMILES | % inh. (percentage inhibition of IL-5 production)
1 | O=c1cnn(-c2ccc(C(Sc3nccc(-c4cccs4)n3)c3ccc(Cl)cc3)c(Cl)c2)c(=O)[nH]1 (centres unmarked) [Compound 84] | 73%
2 | O=c1cnn(-c2ccc(C(Sc3nc4ccccc4s3)c3ccc(Cl)cc3)c(Cl)c2)c(=O)[nH]1 (racemic) [Compound 77] | 65%
3 | COC(C)c1sc(C(c2ccc(Cl)cc2)c2c(Cl)cc(-n3ncc(=O)[nH]c3=O)cc2Cl)nc1-c1ccccc1 (mixture of isomers) [Comp 315] | 93%
4 | O=c1cnn(-c2ccc(C(c3ccc(Cl)cc3)c3ncc(-c4ccccc4)o3)c(Cl)c2)c(=O)[nH]1 (racemic) [Comp 103] | 63%
5 | Cc1sc(-c2ccccc2)nc1C(c1ccc(Cl)cc1)c1c(Cl)cc(-n2ncc(=O)[nH]c2=O)cc1Cl (racemic) [Compound 365] | 88%
6 | Cc1sc(SC(c2ccc(Cl)c(C(F)(F)F)c2)c2c(Cl)cc(-n3ncc(=O)[nH]c3=O)cc2Cl)nc1-c1ccccc1 (centres unmarked) [Compound 392] | 87%
7 | O=c1cnn(-c2ccc(C(Sc3ccncc3)c3ccc(Cl)cc3)c(Cl)c2)c(=O)[nH]1 (racemic) [Compound 65] | 50%
8 | CN(C)c1cccc(-c2nnc(C(c3ccc(Cl)cc3)c3c(Cl)cc(-n4ncc(=O)[nH]c4=O)cc3Cl)o2)c1 (racemic) [Compound 182] | 75%
9 | CN1CCCC(c2nnc(C(c3ccc(Cl)cc3)c3c(Cl)cc(-n4ncc(=O)[nH]c4=O)cc3Cl)o2)C1 (mixture of isomers) [Compound 196] | 35%
10 | CCOC(=O)c1sc(C(c2ccc(Cl)cc2)c2c(Cl)cc(-n3ncc(=O)[nH]c3=O)cc2Cl)nc1-c1ccccc1 (racemic) [Comp 29] | 95%
11 | O=c1cnn(-c2cc(Cl)c(C(c3ccc(Cl)cc3)c3nnc(-c4ccc(Cl)cc4)o3)c(Cl)c2)c(=O)[nH]1 (racemic) [Compound 167] | 82%
12 | CN(C)CCN(C)C(=O)Cc1sc(C(c2ccc(Cl)cc2)c2c(Cl)cc(-n3ncc(=O)[nH]c3=O)cc2Cl)nc1-c1ccccc1 (racemic) [Comp 335] | 52%
13 | O=c1cnn(-c2cc(Cl)c(C(Sc3nc(-c4ccccc4)no3)c3ccc(Cl)c(C(F)(F)F)c3)c(Cl)c2)c(=O)[nH]1 (racemic) [Compound 404] | 92%
14 | CC(c1ccc(Cl)cc1)(c1nnc(-c2ccccc2)o1)c1ccc(-n2ncc(=O)[nH]c2=O)cc1Cl (racemic) [Comp 104] | 60%
15 | O=c1cnn(-c2cc(Cl)c(C(c3ccc(Cl)cc3)c3nc(-c4ccccc4)c(Cc4ccccc4)s3)c(Cl)c2)c(=O)[nH]1 (racemic) [Comp 249] | 80%
16 | Cc1nc(-c2ccccc2Cl)c(C(c2ccc(Cl)cc2)c2ccc(-n3ncc(=O)[nH]c3=O)cc2Cl)s1 (racemic) [Compound 139] | 60%
17 | O=c1cnn(-c2ccc(C(c3ccc(Cl)cc3)c3nc(-c4ccccc4)sc3-c3ccccc3)c(Cl)c2)c(=O)[nH]1 (racemic) [Compound 373] | 40%
18 | CCOC(=O)CSC(c1ccc(Cl)cc1)c1ccc(-n2ncc(=O)[nH]c2=O)cc1Cl (racemic) [Compound 76] | 2%

Row | SMILES | % inh. (percentage inhibition of IL-5 production)
19 | O=c1cnn(-c2cc(Cl)c(C(SC3=NCCS3)c3ccc(Cl)c(C(F)(F)F)c3)c(Cl)c2)c(=O)[nH]1 (centres unmarked) [Compound 386] | 97%
20 | COCc1sc(C(c2ccc(Cl)cc2)c2c(Cl)cc(-n3ncc(=O)[nH]c3=O)cc2Cl)nc1-c1ccccc1 (racemic) [Comp 278] | 97%
21 | O=c1cnn(-c2cc(Cl)c(C(c3ccc(Cl)cc3)c3nc(-c4cccs4)cs3)c(Cl)c2)c(=O)[nH]1 (racemic) [Comp 31] | 93%
22 | Cc1ccsc1-c1nnc(C(c2ccc(Cl)cc2)c2c(Cl)cc(-n3ncc(=O)[nH]c3=O)cc2Cl)o1 (racemic) [Compound 203] | 82%
23 | O=c1cnn(-c2cc(Cl)c(C(c3ccc(Cl)cc3)c3nc(-c4ccco4)cs3)c(Cl)c2)c(=O)[nH]1 (racemic) [Comp 236] | 92%
24 | O=c1cnn(-c2cc(Cl)c(C(c3ccc(Cl)cc3)c3nnc(-c4cccc(O)c4)o3)c(Cl)c2)c(=O)[nH]1 (racemic) [Compound 200] | 43%
25 | O=c1cnn(-c2cc(Cl)c(C(c3ccc(Cl)cc3)c3nnc(-c4ccc(Br)cc4)o3)c(Cl)c2)c(=O)[nH]1 (racemic) [Compound 168] | 80%
26 | Cn1ccnc1SC(c1ccc(Cl)cc1)c1ccc(-n2ncc(=O)[nH]c2=O)cc1Cl (racemic) [Compound 58] | 5%
27 | O=c1cnn(-c2cc(Cl)c(C(c3ccc(Cl)c(C(F)(F)F)c3)c3nnc(-c4ccccc4)o3)c(Cl)c2)c(=O)[nH]1 (racemic) [Compound 165] | 80%
28 | O=C(Cc1sc(C(c2ccc(Cl)cc2)c2c(Cl)cc(-n3ncc(=O)[nH]c3=O)cc2Cl)nc1-c1ccccc1)N1CCOCC1 (racemic) [Comp 276] | 91%
29 | O=c1cnn(-c2ccc(C(c3ccncc3)c3ccc(Cl)cc3)c(Cl)c2)c(=O)[nH]1 (centres unmarked) [Comp 112] | 62%
30 | CCOC(=O)Cc1sc(C(c2ccc(Cl)cc2)c2c(Cl)cc(-n3ncc(=O)[nH]c3=O)cc2Cl)nc1-c1ccccc1Cl (racemic) [Comp 293] | 59%
31 | O=c1cnn(-c2ccc(C(c3ccc(Cl)cc3)c3noc(-c4ccccc4)n3)c(Cl)c2)c(=O)[nH]1 (racemic) [Comp 107] | 81%
32 | O=c1cnn(-c2cc(Cl)c(C(c3ccc(Cl)cc3)c3nnc(-c4ccccn4)o3)c(Cl)c2)c(=O)[nH]1 (racemic) [Compound 169] | 81%
33 | Cl.O.O=c1cnn(-c2cc(Cl)c(C(c3ccc(Cl)cc3)c3csc(-c4ccncc4)n3)c(Cl)c2)c(=O)[nH]1 (racemic) [Compound 366] | 93%
34 | COc1cc(C(c2nc(-c3ccccc3)cs2)c2c(Cl)cc(-n3ncc(=O)[nH]c3=O)cc2Cl)ccc1Cl (racemic) [Comp 289] | 96%
35 | Cc1ccc(-c2nnc(C(c3ccc(Cl)cc3)c3c(Cl)cc(-n4ncc(=O)[nH]c4=O)cc3Cl)o2)cc1 (racemic) [Compound 177] | 69%
36 | Cl.O=c1cnn(-c2ccc(C(NCCc3ccco3)c3ccc(Cl)cc3)c(Cl)c2)c(=O)[nH]1 (racemic) [Compound 43] | 37%

Same assay, conditions: test dose 1×10^−6 M, 48 hours, read-out: % inh. (percentage inhibition of IL-5 production)

Row | SMILES | inhibition at 1 µM
37 | O=c1cnn(-c2ccc(C(c3ccc(Cl)cc3)c3nc4ccccc4s3)c(Cl)c2)c(=O)[nH]1 (racemic) [Compound 130, (±)-2-[4-[2-benzothiazolyl-(4-chlorophenyl)methyl]-3-chlorophenyl]-1,2,4-triazine-3,5(2H,4H)-dione] | 70%
38 | O=c1cnn(-c2ccc(C(Nc3nc4cccnc4s3)c3ccc(Cl)cc3)c(Cl)c2)c(=O)[nH]1 (racemic) [Compound 410, (±)-2-[3-chloro-4-[(4-chlorophenyl)[(thiazolo[5,4-b]pyridin-2-yl)amino]methyl]phenyl]-1,2,4-triazine-3,5(2H,4H)-dione] | 15%
